Experiments:
WT SRE RNA = assay: In vitro competitive Chem-CLIP (C-Chem-CLIP), WT SRE RNA; settings: 3 at 1.5 μM, read-out: IC50, competition of the binding of 3
Method: (§1) In Vitro Chemical Cross-linking and Isolation by Pull Down (Chem-CLIP) and Competitive Chem-CLIP (C-Chem-CLIP). Growth medium [Dulbecco's modified eagle medium (DMEM; corning, 10-013-CM) with 1× Glutagro (corning)] and 10% (v/v) fetal bovine serum (FBS; Sigma, 12003C) was inactivated by heating at 95° C. for 15 min and slowly cooling to room temperature. Approximately 10,000 counts of 32P 5′-end labeled tau WT, DDPAC, WT+I17T, or DDPAC+I17T RNA were folded in 10 μL growth medium by heating at 65° C. for 5 min and slowly cooling to room temperature. Chem-CLIP probe 3 or negative control probe 4 was then added into the folded RNA in a total volume of 20 μL, and the mixtures were incubated at 37° C. for 1 h. For C-Chem-CLIP, dilutions of competing compound 2 were incubated with RNA for 30 min before adding 3. […]
(§2) The Chem-CLIP probe 3 or control probe 4 was then clicked to disulfide biotin azide (2 μL of 10 mM solution prepared in DMSO solution per sample; Click Chemistry Tools, catalog no. 1168-10). […] The radioactive signal from bound RNAs (on the beads) and unbound RNAs (in the wash buffer) was measured by using a Beckman Coulter LS6500 Liquid Scintillation Counter as Rbound and Runbound. Enrichment was calculated as the percentage of radiolabeled RNA captured by beads calculated as Rbound/(Rbound+Runbound).

DDPAC SRE RNA = assay: In vitro competitive Chem-CLIP (C-Chem-CLIP), DDPAC SRE RNA; settings: 3 at 1.5 μM, read-out: IC50, competition of the binding of 3
Method: as §1, §2

DDPAC I17T model RNA = assay: Optical melting, DDPAC I17T RNA; assay type: binding; settings: 2 at 1.5 μM
Method: Optical Melting Experiments. The thermal stabilities of WT, DDPAC, and DDPAC+I17T model RNAs were analyzed by optical melting in the presence or absence of compound 1 or 2 as previously described.^18 The RNAs (2 μM) were heated to 95° C. in 1×PBS buffer and slowly cooled to room temperature. The samples were then cooled to 15° C. in the presence of compound 1 (10 μM; 0.1% (v/v) DMSO), 2 (1.5 μM; 0.1% (v/v) DMSO) or vehicle (0.1% (v/v) DMSO) and then heated to 85° C. at a rate of 1° C. per min. Absorbance as a function of temperature was measured at 260 nm using a Beckman Coulter DU800 UV/vis spectrophotometer. Melting curves were fitted with MeltWin 3.5.^31

[1] = tested on: phosphorylated tau / NeuN positive neurons in cortex; assay: Brain immunohistochemistry in htau mice (AT8, NeuN); assay type: in vivo, htau mouse; settings: 100 mg/kg p.o. q.o.d.
Method: Brain Tissue Histology. Left brain hemispheres of htau mice were harvested for total RNA. Right brain hemispheres (unfrozen) of htau mice were stored in 10% neutral buffered formalin (VWR) for 48 h. Tissue processing, embedding, and sectioning were performed and generated by the Scripps Florida Histology Core. Briefly, tissue was embedded in paraffin using a Sakura Tissue-Tek VIP5 paraffin processor, sectioned at 4 μm, and then mounted on positively charged slides for further immunostaining. The slides were stained on a Leica BondMax Immunostaining platform with the following primary antibodies: AT8 (MN1020, Invitrogen; 1:100 dilution) and NeuN (MAB377B, Chemicon; 1:500 dilution). After the slides were washed three times with 1×DPBS, a DAB Substrate Kit (Vector Laboratories, Inc.) was used to detect the primary antibodies per the manufacturer's protocol. After staining was complete, the slides were dehydrated, cover-slipped with Cytoseal 60 (Thermo Scientific), and imaged with a Leica DMI3000 B upright fluorescent microscope using 20× or 60× objective. Quantification was performed in a blinded fashion using ImageJ in which positivity was identified as aggregates (purple staining of AT8 or brown staining of NeuN) with diameter over 20 μm and staining signal over 185 that were kept constant across all treatment groups.

htau mice = assay: Nesting activity, htau mice; assay type: in vivo, htau mouse; settings: scale 1-5, 100 mg/kg p.o. q.o.d.
Method: Nesting Activity. From Day 1 to Day 20, mice were individually housed and nesting material from the previous day was removed. An intact 3.0 g nestlet was placed within each cage. Around 15 h later, the resulting nest was photographed for qualitative scoring, and the untorn nestlet was weighed if present. All nest images and weights were analyzed by a blinded individual and based on published criteria.^43 In brief, nesting is scored on a rating scale of 1-5 where if the nestlet is over 90% intact, it is given a nestlet score is 1 (Poor; FIG. 4C). When the nestlet is partially torn but >50% remains, the nestlet score is 2; a score of 3 is assigned when 50-90% of the nestlet is torn but spread around the cage and no identifiable nest site is found (Medium; FIG. 4C). When more than 90% of the nestlet is torn and the nest is identifiable but flat, the nestlet score is 4. When a near perfect nest is built and the wall is higher than the mouse's body, it is assigned a nestlet score of 5 (Good; FIG. 4C).

[2] = assay type: physicochemical; settings: not tested for this reason

## COc1cc(N)ncc1CCCN(C)CCCn1cnc2c3ccccc3n(C)c2c1=O [Compound 2, 3-(3-((3-(6-amino-4-methoxypyridin-3-yl)propyl)(methyl)amino)propyl)-5-methyl-3,5-dihydro-4H-pyrimido[5,4-b]indol-4-one]
WT SRE RNA
  IC50: ~2000 nM
DDPAC SRE RNA
  IC50: ~2000 nM
DDPAC I17T model RNA
  effect on Tm: no effect on the Tm
[1]
  AT8 antibody immunoreactivity (phosphorylated tau): reduced antibody immunoreactivity throughout the cortex
  NeuN (neuron viability): enhanced
Htau mice
  nesting score at Day 2: 2.6±1.1
  nesting score at Day 20: 4.5±0.4
[2]
  solubility at 200 μM: insolubility
